The values below come from patent US20260076885A1, “Complexation of Oxybenzone with C-methylresorcin[4]arene” (University of Cincinnati, priority 2021, published 2026).

The conditions of data set [1]: background, cited from earlier work.
Data set [2] in a line: in vitro. The data set is classed as in vitro ADME, human. As to the method: The skin permeation of OXB was evaluated using 6% OXB formulations with and without RsC1 in a Franz diffusion cell (FIG. 9 and Table 1).
The amounts of OXB remaining on the skin surface, inside the skin, and on the surface of the donor chamber cap were also determined at the end of the skin permeation experiments. The average total recovery of OXB from the permeation study was approximately 75%.
In addition, the amount of RsC1 that permeated through the skin to the receptor chamber was determined using an HPLC assay.
Rinse 1: rinsing once using receptor chamber solution (PBS with 0.02% sodium azide and 3% cyclodextrin); Rinse 2: rinsing four times using a methanol/water (85:15) solution. The values for the rinses, cut-up skin, and donor chamber cap were adjusted to correct for the extraction method and RsC1 interference during the OXB assay.
Skin permeation studies of OXB were performed using split-thickness human skin in a Franz diffusion cell with a 0.7 cm2 diffusion area. The skin samples were labeled with the code of the skin donor (n=3, CC, RT, or SL) and the same group of skin donors was used in each experiment. To prepare the skin samples, the cadaver skin was cut into 1.5 cm×1.5 cm pieces, thawed in Petri dishes with PBS at room temperature for 2 h, and then patted dry with Kimwipes before being mounted onto the diffusion cell with the stratum corneum side facing up. PBS containing 0.02% sodium azide as a preservative and 3% cyclodextrin as a solubilizing agent for OXB was used as the solution in the receptor chamber. The TEWL of the skin sample was measured to ensure skin integrity before the permeation study. For TEWL measurements, a vapometer was placed on top of the donor chamber of the diffusion cell and the measurement was repeated until a constant TEWL value was obtained (2-3 measurements, 15 min apart). Only skin samples with TEWL values of <10 g/m2/h were used for permeation experiments.
After the TEWL measurement, the skin in the diffusion cell was allowed to equilibrate for 1 h. During this equilibration period, the skin surface was maintained at 32±1° C. The receptor medium was stirred with a magnetic stirrer at 600 rpm to ensure uniform mixing. The permeation study was initiated by applying 2 mg/cm2 of the test formulation on the skin surface in the diffusion cell. The dose of 2 mg/cm2 was selected based on FDA guidelines. The test formulations were 6% OXB and 6% OXB+RsC1 (1:1) in ethanol. At 0, 3, 6, 10, 12, and 24 h after dosing, 0.5 mL samples were withdrawn from the receptor chamber and immediately replaced with the same volume of fresh PBS solution to maintain a constant receptor solution volume. At the end of the experiment, the residual formulation in the donor compartment was recovered by rinsing once with the receptor chamber solution (PBS with 0.02% sodium azide and 3% cyclodextrin) and four times with methanol/water (85:15) solution (each time with 0.5 ml for 30 s). The treated areas were then dried with Kimwipes. The donor chamber cap and gasket were soaked in 5 ml of methanol/water (85:15) solution for 30 min. The skin was then removed from the diffusion cell, cut into small pieces, and extracted with 4×1 ml of methanol/water (85:15) solution. Blank skin samples were used as the control. The samples collected from the receptor chamber, the rinses, and skin extraction were centrifuged (3000×g for 15 min), and OXB content in the supernatant was determined using HPLC. Statistical analysis was performed using the Student's unpaired t-test and p<0.05 was considered significant.
The HPLC assay was conducted using a Shimadzu HPLC system (Shimadzu Scientific Instruments, Inc., Addison, IL) with an LC-20 AT pump, an SPD-20A UV-Vis detector, a SL-20A autoinjector, and a Microsorb-MV100-5 C18 column (150×4.6 mm, Agilent Technologies, Santa Clara, CA). The mobile phase was methanol and water at a ratio of 85:15. The flow rate was 0.8 ml/min. […]

For `COc1ccc(C(=O)c2ccccc2)c(O)c1` [OXB, Oxybenzone], the “Fraction of OXB that can penetrate human skin” value in data set [1] (Franz diffusion cell) is recorded as 10%. The “Fraction of OXB entering the bloodstream and eliminated through urine” value in data set [1] is 0.4%. Besides, the “Total OXB recovered, Average (%)” value in data set [2] (human, 24 h, 6 %) was 70.3%. Further, the recovery at 24 h, 6 % in data set [2] (human, Average total recovery of OXB from the permeation study) was around 75%; in data set [2] (human, Recovery of OXB, Donor chamber cap, Average (%)), 0.6%; in data set [2] (human, Recovery of OXB, Rinse 1, Average (%)) it was 24%; in data set [2] (human, Recovery of OXB, Rinse 2, Average (%)), 22.9%; in data set [2] (human, Recovery of OXB, Skin cut-up, Average (%)), 2.7%.

Turning to `CC1c2cc(c(O)cc2O)C(C)c2cc(c(O)cc2O)C(C)c2cc(c(O)cc2O)C(C)c2cc1c(O)cc2O` (stereo not drawn) [RsC1, C-methylresorcin[4]arene], in data set [2], the “Amount of RsC1 permeated through the skin to the receptor chamber” value is reported as “negligible”.
